The results in this text go back to patent US10813931B2, “Methods and compositions relating to the treatment of cancer” (THE BRIGHAM AND WOMEN'S HOSPITAL, INC., priority 2013, dated 2020).

This assay relates to taxane-refractory breast cancer explant. The assay can be described thus: Human refractory breast cancer explant, immunohistochemistry. As to conditions: ex vivo 72 h, taxane-containing regimen or Doxil, N=7. As for the experimental part:
Anonymous human breast cancer tissues (N=7) from patients refractory to taxane-containing regimens were incubated ex vivo in autologous patient serum in the presence or absence of taxane-containing or liposomal doxorubicin (Doxil) regimens for 72 hours. Following fixation in formalin and paraffin embedding, tissue was processed by H&E to identify tumor cells and immunohistochemistry (IHC) was performed to identify protein expression. IHC scores were determined in a third party blinded fashion by multiplying the intensity of staining at the cellular level with the percentage of cells stained per field of view.
Fresh tumor tissues were collected from breast cancer patients immediately after surgical resection at HCG cancer hospital, Bangalore, India. The tumor samples were transported to the laboratory at 4° C., in appropriate transport buffer within 60 minutes post-resection, for ex-vivo studies and molecular and pathological evaluation. […] After 48 hrs of treatment, tumor cell viability was measured and release of soluble cleaved caspase-3 and caspase-8 were determined.
Human Tumor tissues were fixed in Phos stop (Roche) containing 4% buffered formalin and embedded in paraffin. […] Immunoreactivity was scored by intensity of staining (0, no staining, 1 weak; 2 moderate; 3 strong) and percentage of positive cells. By multiplying both values, a final score was calculated. […]

The structures appear in SMILES notation.

Turning to `CC(=O)O[C@@]12CO[C@@H]1C[C@H](O)[C@@]1(C)C(=O)[C@H](O)C3=C(C)[C@@H](OC(=O)[C@H](O)[C@@H](NC(=O)OC(C)(C)C)c4ccccc4)C[C@@](O)([C@@H](OC(=O)c4ccccc4)[C@H]21)C3(C)C` [DTX, docetaxel], the “CD44 expression (IHC)” value is listed as “induced the over-expression of CD44”.
